From US12616740B2, “Methods of using a GIP/GLP1 co-agonist for therapy” (ELI LILLY AND COMPANY, priority 2018, dated 2026)

Legend:
[1] = test system: patients with T2DM who have inadequate glycemic control; test: Phase 2 clinical study NCT03131687 (26 weeks): patients reaching HbA1c target; format: in vivo, human
Description: Clinical Study (NCT03131687) Supporting Maintenance Dose Embodiments A 6-month (26-week) Phase 2 double-blind clinical study is designed to evaluate the safety, efficacy, and PK/PD of 4 dose levels (1 mg, 5 mg, 10 mg and 15 mg respectively) of tirzepatide once weekly by subcutaneous injection compared with dulaglutide 1.5 mg. once weekly (QW) and placebo QW in patients with T2DM who have inadequate glycemic control with diet and exercise with or without a stable dose of metformin. Tirzepatide dose is up-titrated to the maintenance dose using the following weekly dose increments:
The study also has a 4-week follow up period. In addition to safety and efficacy for treating T2DM, efficacy endpoints include the effect of tirzepatide on HbA1c, FBG, body weight, lipids, and waist circumference compared with placebo and with dulaglutide 1.5 mg. The study also evaluates the effect of tirzepatide on GI tolerability, hypoglycemia, hypersensitivity reactions, and pancreatic safety, as well as the development of treatment-emergent anti-drug antibodies. Model-based dose response analyses are performed to predict potential for significant HbA1c lowering and weight loss in longer studies. Statistical Analyses: Efficacy: The primary efficacy outcome of HbA1c change from baseline to the 26-week endpoint is analyzed using a Bayesian dose-response model. Analyses are performed on the intention to treat population (mITT) analysis set. Supportive analysis of the primary efficacy outcome for the mITT dataset are the model for post-baseline measures (MMRM) with body mass index (BMI) (<30 kg/m^2, ≥30 kg/m^2), metformin use, treatment, visit, and treatment-by-visit interaction as fixed effects, baseline HbA1c as a covariate, and patient as a random effect. The mean weight change from baseline at 12 and 26 weeks, along with the mean change from baseline of HbA1c at 12 weeks, is analyzed using similar dose-response models as the primary analyses. The percentages of patients with ≥5% or ≥10% body weight loss, reaching the HbA1c target of ≤6.5% or ≤7.0% at 26 weeks, or requiring rescue therapy are analyzed using logistic regression with fixed effects of treatment and strata, and baseline as a covariate. The changes from baseline in FBG (fasting blood glucose), SMBG (self-monitored blood glucose) levels, waist circumference, and mean percentage change in lipids from baseline to 12 and 26 weeks are analyzed using a similar MMRM to the one used for the primary analyses. Table Abbreviations: Dula 1.5 mg=dulaglutide 1.5 mg once weekly; LY means tirzepatide, and LY 1 mg=tirzepatide 1 mg once weekly; LY 5 mg=5 mg once weekly; LY 10 mg=escalation dose group tirzepatide once weekly with highest dose of 10 mg; LY 15 mg=escalation dose group of tirzepatide once weekly with highest dose 15 mg; LOCF=last observation-carried-forward; N=number of patients; pbo=placebo; Week 26=mITT on-treatment data at Week 26 excluding data after study drug discontinuation or rescue drug initiation; mITT=modified intent-to-treat; SD=standard deviation. For Table 4, n=number of patients in the population with baseline and post-baseline value at the specified time point. For Table 6, LY10 mg=escalation dose group tirzepatide, once weekly with highest dose of 10 mg; escalation dose: (5 mg weeks 0 and 1), LY15 mg=escalation dose group tirzepatide, once weekly with highest dose of 15 mg; escalation dose: (5 mg weeks 0 and 1; 10 mg weeks 2 to 5); N=number of patients in specified group, m=number of patients who experienced new event during interval, FolUp=follow up, T/Wk=Time range, (week) and %=means percent patients spending at least some time in treatment group who experienced new event during interval. For Table 7, n is the number of patients with events meeting the criteria; N is number of patients in the population; % is percent of patients in treatment group experiencing the event.

[2] = NCT03311724: nausea, vomiting and diarrhea, new events per interval; format: in vivo, human; details: LY12 mg Group 3 (tirzepatide 4 mg × 4, 8 mg × 4, 12 mg × 4 once weekly), N = 29
Excerpt: This is a 12-week treatment with a 1 week screening (Visit 1) followed by a 1 week lead-in (Visit 2), then 12 weeks of treatment (Visits 3-10, including telephone visits), then followed by 4-week safety follow-up. It is a Phase 2 study designed to examine the efficacy and tolerability of subcutaneously once-weekly tirzepatide compared with placebo in patients with type 2 diabetes who have inadequate glycemic control with diet and exercise alone or with a stable dose of metformin. The study was designed per below and conducted to refine the escalation scheme.

[3] = LY 5 mg = tirzepatide 5 mg once weekly, LOCF Week 26 (N = 55)
[4] = LY 5 mg = tirzepatide 5 mg once weekly, mITT Week 26 (N = 48)
[5] = LY 10 mg = tirzepatide once weekly, escalation to highest dose 10 mg, LOCF Week 26 (N = 51)
[6] = LY 10 mg = tirzepatide once weekly, escalation to highest dose 10 mg, mITT Week 26 (N = 44)
[7] = LY 15 mg = tirzepatide once weekly, escalation to highest dose 15 mg, LOCF Week 26 (N = 53)
[8] = LY 15 mg = tirzepatide once weekly, escalation to highest dose 15 mg, mITT Week 26 (N = 35)

## tirzepatide [LY]
[1]; 5 mg, 10 mg, and 15 mg doses of tirzepatide, significantly different from placebo and from dulaglutide 1.5 mg
  HbA1c change from baseline (in words): significantly decrease HbA1c from baseline
[1]; [3]
  % of Patients Reaching HbA1c Target <5.7%: 3.6%
  % of Patients Reaching HbA1c Target <6%: 25.5%
  odds ratio vs. placebo, Patients Reaching HbA1c Target <5.7%: 1.6
  odds ratio vs. placebo, Patients Reaching HbA1c Target <6%: 11.8
[1]; [4]
  % of Patients Reaching HbA1c Target <5.7%: 4.3%
  % of Patients Reaching HbA1c Target <6%: 23.4%
  odds ratio vs. placebo, Patients Reaching HbA1c Target <5.7%: 1.7
  odds ratio vs. placebo, Patients Reaching HbA1c Target <6%: 10.5
[1]; [5]
  % of Patients Reaching HbA1c Target <5.7%: 18.0%
  % of Patients Reaching HbA1c Target <6%: 46.0%
  odds ratio vs. placebo, Patients Reaching HbA1c Target <5.7%: 7.8
  odds ratio vs. placebo, Patients Reaching HbA1c Target <6%: 28.7
[1]; [6]
  % of Patients Reaching HbA1c Target <5.7%: 20.9%
  % of Patients Reaching HbA1c Target <6%: 51.2%
  odds ratio vs. placebo, Patients Reaching HbA1c Target <5.7%: 7.9
  odds ratio vs. placebo, Patients Reaching HbA1c Target <6%: 34.5
[1]; [7]
  % of Patients Reaching HbA1c Target <5.7%: 30.2%
  % of Patients Reaching HbA1c Target <6%: 37.7%
  odds ratio vs. placebo, Patients Reaching HbA1c Target <5.7%: 14.4
  odds ratio vs. placebo, Patients Reaching HbA1c Target <6%: 22.0
[1]; [8]
  % of Patients Reaching HbA1c Target <5.7%: 42.9%
  % of Patients Reaching HbA1c Target <6%: 54.3%
  odds ratio vs. placebo, Patients Reaching HbA1c Target <5.7%: 26.6
  odds ratio vs. placebo, Patients Reaching HbA1c Target <6%: 48.7
[2]; Follow-up
  Nausea Vomiting and Diarrhea: m, number of patients who experienced new event during interval: m = 1;
[2]; Overall
  Nausea Vomiting and Diarrhea: m, number of patients who experienced new event during interval: m = 14;
[2]; T/Wk 0
  Nausea Vomiting and Diarrhea: m, number of patients who experienced new event during interval: m = 9;
[2]; T/Wk 1
  Nausea Vomiting and Diarrhea: m, number of patients who experienced new event during interval: m = 5;
[2]; T/Wk 2
  Nausea Vomiting and Diarrhea: m, number of patients who experienced new event during interval: m = 1;
[2]; T/Wk 3
  Nausea Vomiting and Diarrhea: m, number of patients who experienced new event during interval: m = 3;
[2]; T/Wk 4
  Nausea Vomiting and Diarrhea: m, number of patients who experienced new event during interval: m = 3;
[2]; T/Wk 5
  Nausea Vomiting and Diarrhea: m, number of patients who experienced new event during interval: m = 0;
[2]; T/Wk 6
  Nausea Vomiting and Diarrhea: m, number of patients who experienced new event during interval: m = 2;
[2]; T/Wk 7
  Nausea Vomiting and Diarrhea: m, number of patients who experienced new event during interval: m = 1;
